Key:
Type in all cases: in vivo
[1] = system: galium (catchweed bedstraw, Galium aparine); test: Test A postemergence, visual plant response rating; settings: for Galium plant response rating (0 to 100 scale): 500 g ai/ha, postemergence, 0 is no effect, 100 is complete control; for Galium plant response rating: Postemergence, 125 g ai/ha, 0 to 100 scale (0 no effect, 100 complete control)
In short: (§1)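 Formulated in a non-phytotoxic solvent mixture including surfactant, each test chemical was sprayed onto the soil surface after sowing, or onto seedlings 2 to 10 cm high. Roughly 10 days later, plants were compared with untreated controls and rated for injury from 0 (no effect) to 100 (complete control).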

kochia (Kochia scoparia) [2] = test: Test A postemergence, visual plant response rating; settings: for Kochia plant response rating (0 to 100 scale): 500 g ai/ha, postemergence, 0 is no effect, 100 is complete control; for Kochia plant response rating: Postemergence, 125 g ai/ha, 0 to 100 scale (0 no effect, 100 complete control)
In short: as §1

[3] = system: ragweed (common ragweed, Ambrosia elatior); test: Test A postemergence, visual plant response rating; settings: for Ragweed plant response rating (0 to 100 scale): 500 g ai/ha, postemergence, 0 is no effect, 100 is complete control; for Ragweed plant response rating: Postemergence, 125 g ai/ha, 0 to 100 scale (0 no effect, 100 complete control)
In short: as §1

[4] = system: pigweed (Amaranthus retroflexus); test: Test A postemergence, visual plant response rating; settings: for Pigweed plant response rating (0 to 100 scale): 500 g ai/ha, postemergence, 0 is no effect, 100 is complete control; for Pigweed plant response rating: Postemergence, 125 g ai/ha, 0 to 100 scale (0 no effect, 100 complete control)
In short: as §1

[5] = system: blackgrass (Alopecurus myosuroides); test: Test A postemergence, visual plant response rating; settings: for Blackgrass plant response rating (0 to 100 scale): 500 g ai/ha, postemergence, 0 is no effect, 100 is complete control; for Blackgrass plant response rating: Postemergence, 125 g ai/ha, 0 to 100 scale (0 no effect, 100 complete control)
In short: as §1

[6] = system: wheat (Triticum aestivum); test: Test A postemergence, visual plant response rating; settings: for Wheat plant response rating (0 to 100 scale): 500 g ai/ha, postemergence, 0 is no effect, 100 is complete control; for Wheat plant response rating: Postemergence, 125 g ai/ha, 0 to 100 scale (0 no effect, 100 complete control)
In short: as §1

[7] = system: Italian ryegrass (Lolium multiflorum); test: Test A postemergence, visual plant response rating; settings: for Ryegrass, Italian plant response rating (0 to 100 scale): 500 g ai/ha, postemergence, 0 is no effect, 100 is complete control; for Ryegrass, Italian plant response rating: Postemergence, 125 g ai/ha, 0 to 100 scale (0 no effect, 100 complete control)
In short: as §1

[8] = system: barnyardgrass (Echinochloa crus-galli); test: Test A postemergence, visual plant response rating; settings: for Barnyardgrass plant response rating (0 to 100 scale): 500 g ai/ha, postemergence, 0 is no effect, 100 is complete control; for Barnyardgrass plant response rating: Postemergence, 125 g ai/ha, 0 to 100 scale (0 no effect, 100 complete control)
In short: as §1

[9] = system: foxtail, giant (giant foxtail, Setaria faberii); test: Test A postemergence, visual plant response rating; settings: for Foxtail, Giant plant response rating (0 to 100 scale): 500 g ai/ha, postemergence, 0 is no effect, 100 is complete control; for Foxtail, Giant plant response rating: Postemergence, 125 g ai/ha, 0 to 100 scale (0 no effect, 100 complete control)
In short: as §1

corn (Zea mays) = test: Test A postemergence, visual plant response rating; settings: for Corn plant response rating (0 to 100 scale): 500 g ai/ha, postemergence, 0 is no effect, 100 is complete control; for Corn plant response rating: Postemergence, 125 g ai/ha, 0 to 100 scale (0 no effect, 100 complete control)
In short: as §1

rice (Oryza sativa) = test: Test B flooded paddy test, visual plant response rating; settings: 250 g ai/ha, Flood, applied to paddy water, 2-leaf stage, evaluated after 13 to 15 days
In short: (§2)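 Compounds added straight into paddy water of pots flooded to 3 cm, with 2-leaf-stage plants of the four species; water level held throughout.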

[10] = system: ducksalad (Heteranhera limosa); test: as above; settings: 250 g ai/ha, Flood, applied to paddy water, 2-leaf stage, evaluated after 13 to 15 days
In short: as §2

[11] = system: barnyardgrass (Echinochloa crus-galli); test: as above; settings: 250 g ai/ha, Flood, applied to paddy water, 2-leaf stage, evaluated after 13 to 15 days
In short: as §2

[12] = system: sedge, umbrella (small-flower umbrella sedge, Cyperus difformis); test: as above; settings: 250 g ai/ha, Flood, applied to paddy water, 2-leaf stage, evaluated after 13 to 15 days
In short: as §2

kochia (Kochia scoparia) [13] = test: Test A preemergence, visual plant response rating; settings: for Kochia plant response rating: 125 g ai/ha, preemergence, 0 to 100 scale, 0 no effect, 100 complete control; for Kochia plant response rating (0 to 100 scale): 500 g ai/ha Preemergence, approx. 10 days
In short: as §1

[14] = system: ragweed (common ragweed, Ambrosia elatior); test: Test A preemergence, visual plant response rating; settings: for Ragweed plant response rating: 125 g ai/ha, preemergence, 0 to 100 scale, 0 no effect, 100 complete control; for Ragweed plant response rating (0 to 100 scale): 500 g ai/ha Preemergence, approx. 10 days
In short: as §1

[15] = system: pigweed (Amaranthus retroflexus); test: Test A preemergence, visual plant response rating; settings: for Pigweed plant response rating: 125 g ai/ha, preemergence, 0 to 100 scale, 0 no effect, 100 complete control; for Pigweed plant response rating (0 to 100 scale): 500 g ai/ha Preemergence, approx. 10 days
In short: as §1

[16] = system: Italian ryegrass (Lolium multiflorum); test: Test A preemergence, visual plant response rating; settings: for Ryegrass, Italian plant response rating: 125 g ai/ha, preemergence, 0 to 100 scale, 0 no effect, 100 complete control; for Ryegrass, Italian plant response rating (0 to 100 scale): 500 g ai/ha Preemergence, approx. 10 days
In short: as §1

[17] = system: barnyardgrass (Echinochloa crus-galli); test: Test A preemergence, visual plant response rating; settings: for Barnyardgrass plant response rating: 125 g ai/ha, preemergence, 0 to 100 scale, 0 no effect, 100 complete control; for Barnyardgrass plant response rating (0 to 100 scale): 500 g ai/ha Preemergence, approx. 10 days
In short: as §1

[18] = system: foxtail, giant (giant foxtail, Setaria faberii); test: Test A preemergence, visual plant response rating; settings: for Foxtail, Giant plant response rating: 125 g ai/ha, preemergence, 0 to 100 scale, 0 no effect, 100 complete control; for Foxtail, Giant plant response rating (0 to 100 scale): 500 g ai/ha Preemergence, approx. 10 days
In short: as §1

SMILES	Galium plant response rating (0 to 100 scale) [1]	Galium plant response rating [1]	Kochia plant response rating (0 to 100 scale) (kochia (Kochia scoparia) [2])	Kochia plant response rating (kochia (Kochia scoparia) [2])	Ragweed plant response rating (0 to 100 scale) [3]	Ragweed plant response rating [3]	Pigweed plant response rating (0 to 100 scale) [4]	Pigweed plant response rating [4]	Blackgrass plant response rating (0 to 100 scale) [5]	Blackgrass plant response rating [5]	Wheat plant response rating (0 to 100 scale) [6]	Wheat plant response rating [6]	Ryegrass, Italian plant response rating (0 to 100 scale) [7]	Ryegrass, Italian plant response rating [7]	Barnyardgrass plant response rating (0 to 100 scale) [8]	Barnyardgrass plant response rating [8]	Foxtail, Giant plant response rating (0 to 100 scale) [9]	Foxtail, Giant plant response rating [9]	Corn plant response rating (0 to 100 scale) (corn (Zea mays))	Corn plant response rating (corn (Zea mays))	further results
CCc1cccc(C(=NOC)c2c(O)c(C)nn(C)c2=O)c1 [Compound 36]	70	50	70	60	80	70	70	20	20	10	0	0	50	30	0	0	10	0	0	20	Plant response rating, Rice (0 to 100 scale, 0 is no effect, 100 is complete control) (rice (Oryza sativa)): 0; Plant response rating, Ducksalad (0 to 100 scale, 0 is no effect, 100 is complete control) [10]: 0; Plant response rating, Barnyardgrass (0 to 100 scale, 0 is no effect, 100 is complete control) [11]: 0; Plant response rating, Sedge, Umbrella (0 to 100 scale, 0 is no effect, 100 is complete control) [12]: 0; Kochia plant response rating (kochia (Kochia scoparia) [13]): 10; Kochia plant response rating (0 to 100 scale) (kochia (Kochia scoparia) [13]): 50; Ragweed plant response rating [14]: 10; Ragweed plant response rating (0 to 100 scale) [14]: 70; Pigweed plant response rating [15]: 10; Pigweed plant response rating (0 to 100 scale) [15]: 30; Ryegrass, Italian plant response rating [16]: 30; Ryegrass, Italian plant response rating (0 to 100 scale) [16]: 50; Barnyardgrass plant response rating [17]: 10; Barnyardgrass plant response rating (0 to 100 scale) [17]: 20; Foxtail, Giant plant response rating [18]: 0; Foxtail, Giant plant response rating (0 to 100 scale) [18]: 50
CON=C(c1sccc1C)c1c(O)c(C)nn(C)c1=O [Compound 134]	60	60	70	20	70	60	80	40	10	0	0	0	80	20	20	10	20	10	0	0	Plant response rating, Rice (0 to 100 scale, 0 is no effect, 100 is complete control) (rice (Oryza sativa)): 0; Plant response rating, Ducksalad (0 to 100 scale, 0 is no effect, 100 is complete control) [10]: 0; Plant response rating, Barnyardgrass (0 to 100 scale, 0 is no effect, 100 is complete control) [11]: 0; Plant response rating, Sedge, Umbrella (0 to 100 scale, 0 is no effect, 100 is complete control) [12]: 0; Kochia plant response rating (kochia (Kochia scoparia) [13]): 10; Kochia plant response rating (0 to 100 scale) (kochia (Kochia scoparia) [13]): 50; Ragweed plant response rating (0 to 100 scale) [14]: 70; Pigweed plant response rating [15]: 20; Pigweed plant response rating (0 to 100 scale) [15]: 60; Ryegrass, Italian plant response rating [16]: 10; Ryegrass, Italian plant response rating (0 to 100 scale) [16]: 30; Barnyardgrass plant response rating [17]: 0; Barnyardgrass plant response rating (0 to 100 scale) [17]: 10; Foxtail, Giant plant response rating [18]: 0; Foxtail, Giant plant response rating (0 to 100 scale) [18]: 10
CON=C(c1c(O)c(C)nn(C)c1=O)c1csc2ccccc12 (single isomer, unassigned) [Compound 45]	70	50	0	0	70	30	10	0	20	0	0	0	20	0	0	0	0	0	0	0	Plant response rating, Rice (0 to 100 scale, 0 is no effect, 100 is complete control) (rice (Oryza sativa)): 0; Plant response rating, Ducksalad (0 to 100 scale, 0 is no effect, 100 is complete control) [10]: 0; Plant response rating, Barnyardgrass (0 to 100 scale, 0 is no effect, 100 is complete control) [11]: 0; Plant response rating, Sedge, Umbrella (0 to 100 scale, 0 is no effect, 100 is complete control) [12]: 0; Kochia plant response rating (kochia (Kochia scoparia) [13]): 0; Kochia plant response rating (0 to 100 scale) (kochia (Kochia scoparia) [13]): 50; Ragweed plant response rating [14]: 10; Ragweed plant response rating (0 to 100 scale) [14]: 40; Pigweed plant response rating [15]: 0; Pigweed plant response rating (0 to 100 scale) [15]: 0; Ryegrass, Italian plant response rating [16]: 0; Ryegrass, Italian plant response rating (0 to 100 scale) [16]: 10; Barnyardgrass plant response rating [17]: 0; Barnyardgrass plant response rating (0 to 100 scale) [17]: 0; Foxtail, Giant plant response rating [18]: 0; Foxtail, Giant plant response rating (0 to 100 scale) [18]: 0

Reference: patent publication US20210045385A1, “PYRIDAZINONE-SUBSTITUTED KETOXIMES AS HERBICIDES” (FMC Corporation, priority 2018, published 2021)
